Biological target: T1, PLK1 (Homo sapiens, UniProt P53350)
T1 construct: endogenous in cells; host or cells: HeLa
Experiment: PLK1 protein degradation in HeLa cells, Western blotting (PLK1/GAPDH ratio)
Assay type: cell-based
Settings: 6 hours compound incubation; for DC50: measured only if the grade of Dmax is A or B; for Dmax: thymidine block and release, 10 points three-fold from 3 μM, PLK1 to GAPDH ratio, read-out: Dmax
How it was run: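 PLK1 level measured by Western blot as PLK1/GAPDH in HeLa lysates (15 μg protein per lane). Cells were blocked with 2 mM thymidine 24 h, released 4 h, and exposed 6 h to compound, 10 concentrations, 3-fold steps, top 3 μM.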

T1 sequence (P53350 whole entry): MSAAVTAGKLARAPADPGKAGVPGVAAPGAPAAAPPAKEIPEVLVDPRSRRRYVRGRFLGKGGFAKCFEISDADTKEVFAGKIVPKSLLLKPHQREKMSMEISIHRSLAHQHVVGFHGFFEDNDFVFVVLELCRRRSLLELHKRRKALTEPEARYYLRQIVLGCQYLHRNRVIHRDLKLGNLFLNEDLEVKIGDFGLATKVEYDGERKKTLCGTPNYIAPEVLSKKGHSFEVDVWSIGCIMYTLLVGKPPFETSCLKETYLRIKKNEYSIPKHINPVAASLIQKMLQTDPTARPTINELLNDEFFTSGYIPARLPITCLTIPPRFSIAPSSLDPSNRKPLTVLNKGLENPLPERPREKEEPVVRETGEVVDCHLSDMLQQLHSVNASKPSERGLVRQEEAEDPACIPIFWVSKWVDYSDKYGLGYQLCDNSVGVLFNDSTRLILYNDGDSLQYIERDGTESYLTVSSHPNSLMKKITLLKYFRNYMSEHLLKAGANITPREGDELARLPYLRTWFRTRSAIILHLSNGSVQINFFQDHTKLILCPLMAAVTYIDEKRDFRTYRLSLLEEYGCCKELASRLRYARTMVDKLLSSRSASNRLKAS

| Compound | DC50 | Dmax |
| --- | --- | --- |
| COc1cc(C(=O)NC2CCN(CCCCCCCc3cccc(CNC(=O)COc4cccc5c4C(=O)N(C4CCC(=O)NC4=O)C5=O)c3)CC2)c(F)cc1Nc1ncc2c(n1)N(C1CCCC1)CC(F)(F)C(=O)N2C (stereo not drawn) [Compound 63, 4-((9-cyclopentyl-7,7-difluoro-5-methyl-6-oxo-6,7,8,9-tetrahydro-5H-pyrimido[4,5-b][1,4]diazepin-2-yl)amino)-N-(1-(7-(3-((2-((2-(2,6-dioxopiperidin-3-yl)-1,3-dioxoisoindolin-4-yl)oxy)acetamido)methyl)phenyl)heptyl)piperidin-4-yl)-2-fluoro-5-methoxybenzamide] | ≤ 50 nM | ≥ 80% |
| COc1cc(C(=O)NC2CCN(CCCCCCCc3cncc(CNC(=O)COc4cccc5c4C(=O)N(C4CCC(=O)NC4=O)C5=O)c3)CC2)c(F)cc1Nc1ncc2c(n1)N(C1CCCC1)CC(F)(F)C(=O)N2C (stereo not drawn) [Compound 64, 4-((9-cyclopentyl-7,7-difluoro-5-methyl-6-oxo-6,7,8,9-tetrahydro-5H-pyrimido[4,5-b][1,4]diazepin-2-yl)amino)-N-(1-(7-(5-((2-((2-(2,6-dioxopiperidin-3-yl)-1,3-dioxoisoindolin-4-yl)oxy)acetamido)methyl)pyridin-3-yl)heptyl)piperidin-4-yl)-2-fluoro-5-methoxybenzamide] | ≤ 50 nM | ≥ 80% |
| COc1cc(C(=O)NC2CCN(CCN3CCN(c4cccc5c4C(=O)N(C4CCC(=O)NC4=O)C5=O)CC3)CC2)c(F)cc1Nc1ncc2c(n1)N(C1CCCC1)CC(F)(F)C(=O)N2C (stereo not drawn) [Compound 66, 4-((9-cyclopentyl-7,7-difluoro-5-methyl-6-oxo-6,7,8,9-tetrahydro-5H-pyrimido[4,5-b][1, 4]diazepin-2-yl)amino)-N-(1-(2-(4-(2-(2,6-dioxopiperidin-3-yl)-1,3-dioxoisoindolin-4-yl)piperazin-1-yl)ethyl)piperidin-4-yl)-2-fluoro-5-methoxybenzamide] | ≤ 500 nM | 60 to 80% |
| COc1cc(C(=O)NC2CCN(C(=O)CN3CCN(c4cccc5c4C(=O)N(C4CCC(=O)NC4=O)C5=O)CC3)CC2)c(F)cc1Nc1ncc2c(n1)N(C1CCCC1)CC(F)(F)C(=O)N2C (stereo not drawn) [Compound 70, 4-((9-cyclopentyl-7,7-difluoro-5-methyl-6-oxo-6,7,8,9-tetrahydro-5H-pyrimido[4,5-b][1,4]diazepin-2-yl)amino)-N-(1-(2-(4-(2-(2,6-dioxopiperidin-3-yl)-1,3-dioxoisoindolin-4-yl)piperazin-1-yl)acetyl)piperidin-4-yl)-2-fluoro-5-methoxybenzamide] | ≤ 500 nM | 60 to 80% |
| COc1cc(C(=O)NC2CCN(C(=O)N3CCN(c4ccc5c(c4)C(=O)N(C4CCC(=O)NC4=O)C5=O)CC3)CC2)c(F)cc1Nc1ncc2c(n1)N(C1CCCC1)CC(F)(F)C(=O)N2C (stereo not drawn) [Compound 72, 4-((9-cyclopentyl-7,7-difluoro-5-methyl-6-oxo-6,7,8,9-tetrahydro-5H-pyrimido[4,5-b][1,4]diazepin-2-yl)amino)-N-(1-(4-(2-(2,6-dioxopiperidin-3-yl)-1,3-dioxoisoindolin-5-yl)piperazine-1-carbonyl)piperidin-4-yl)-2-fluoro-5-methoxybenzamide] | ≤ 500 nM | 60 to 80% |
| COc1cc(C(=O)NC2CCN(C(=O)CN3CCN(c4ccc5c(c4)C(=O)N(C4CCC(=O)NC4=O)C5=O)CC3)CC2)c(F)cc1Nc1ncc2c(n1)N(C1CCCC1)CC(F)(F)C(=O)N2C (stereo not drawn) [Compound 73, 4-((9-cyclopentyl-7,7-difluoro-5-methyl-6-oxo-6,7,8,9-tetrahydro-5H-pyrimido[4,5-b][1,4]diazepin-2-yl)amino)-N-(1-(2-(4-(2-(2,6-dioxopiperidin-3-yl)-1,3-dioxoisoindolin-5-yl)piperazin-1-yl)acetyl)piperidin-4-yl)-2-fluoro-5-methoxybenzamide] | ≤ 50 nM | ≥ 80% |
| COc1cc(C(=O)NC2CCN(C(=O)CCN3CCN(c4ccc5c(c4)C(=O)N(C4CCC(=O)NC4=O)C5=O)CC3)CC2)c(F)cc1Nc1ncc2c(n1)N(C1CCCC1)CC(F)(F)C(=O)N2C (stereo not drawn) [Compound 74, 4-((9-cyclopentyl-7,7-difluoro-5-methyl-6-oxo-6,7,8,9-tetrahydro-5H-pyrimido[4,5-b][1,4]diazepin-2-yl)amino)-N-(1-(3-(4-(2-(2,6-dioxopiperidin-3-yl)-1,3-dioxoisoindolin-5-yl)piperazin-1-yl)propanoyl)piperidin-4-yl)-2-fluoro-5-methoxybenzamide] | ≤ 50 nM | ≥ 80% |

Next, values leading:

| DC50 | Dmax | Compound |
| --- | --- | --- |
| ≤ 50 nM | ≥ 80% | COc1cc(C(=O)NC2CCN(CC3CCN(c4cccc5c4C(=O)N(C4CCC(=O)NC4=O)C5=O)CC3)CC2)c(F)cc1Nc1ncc2c(n1)N(C1CCCC1)CC(F)(F)C(=O)N2C (stereo not drawn) [Compound 65, 4-((9-cyclopentyl-7,7-difluoro-5-methyl-6-oxo-6,7,8,9-tetrahydro-5H-pyrimido[4,5-b][1,4]diazepin-2-yl)amino)-N-(1-((1-(2-(2,6-dioxopiperidin-3-yl)-1,3-dioxoisoindolin-4-yl)piperidin-4-yl)methyl)piperidin-4-yl)-2-fluoro-5-methoxybenzamide] |
| ≤ 500 nM | 60 to 80% | COc1cc(C(=O)NC2CCN(CC3CCN(c4ccc5c(c4)C(=O)N(C4CCC(=O)NC4=O)C5=O)CC3)CC2)c(F)cc1Nc1ncc2c(n1)N(C1CCCC1)CC(F)(F)C(=O)N2C (stereo not drawn) [Compound 67, 4-((9-cyclopentyl-7,7-difluoro-5-methyl-6-oxo-6,7,8,9-tetrahydro-5H-pyrimido[4,5-b][1,4]diazepin-2-yl)amino)-N-(1-((1-(2-(2,6-dioxopiperidin-3-yl)-1,3-dioxoisoindolin-5-yl)piperidin-4-yl)methyl)piperidin-4-yl)-2-fluoro-5-methoxybenzamide] |
| ≤ 500 nM | 60 to 80% | COc1cc(C(=O)NC2CCN(CCN3CCN(c4ccc5c(c4)C(=O)N(C4CCC(=O)NC4=O)C5=O)CC3)CC2)c(F)cc1Nc1ncc2c(n1)N(C1CCCC1)CC(F)(F)C(=O)N2C (stereo not drawn) [Compound 68, 4-((9-cyclopentyl-7,7-difluoro-5-methyl-6-oxo-6,7,8,9-tetrahydro-5H-pyrimido[4,5-b][1,4]diazepin-2-yl)amino)-N-(1-(2-(4-(2-(2,6-dioxopiperidin-3-yl)-1,3-dioxoisoindolin-5-yl)piperazin-1-yl)ethyl)piperidin-4-yl)-2-fluoro-5-methoxybenzamide] |
| ≤ 50 nM | ≥ 80% | COc1cc(C(=O)NC2CCN(C(=O)N3CCN(c4cccc5c4C(=O)N(C4CCC(=O)NC4=O)C5=O)CC3)CC2)c(F)cc1Nc1ncc2c(n1)N(C1CCCC1)CC(F)(F)C(=O)N2C (stereo not drawn) [Compound 69, 4-((9-cyclopentyl-7,7-difluoro-5-methyl-6-oxo-6,7,8,9-tetrahydro-5H-pyrimido[4,5-b][1,4]diazepin-2-yl)amino)-N-(1-(4-(2-(2,6-dioxopiperidin-3-yl)-1,3-dioxoisoindolin-4-yl)piperazine-1-carbonyl)piperidin-4-yl)-2-fluoro-5-methoxybenzamide] |
| ≤ 50 nM | ≥ 80% | COc1cc(C(=O)NC2CCN(C(=O)CCN3CCN(c4cccc5c4C(=O)N(C4CCC(=O)NC4=O)C5=O)CC3)CC2)c(F)cc1Nc1ncc2c(n1)N(C1CCCC1)CC(F)(F)C(=O)N2C (stereo not drawn) [Compound 71, 4-((9-cyclopentyl-7,7-difluoro-5-methyl-6-oxo-6,7,8,9-tetrahydro-5H-pyrimido[4,5-b][1,4]diazepin-2-yl)amino)-N-(1-(3-(4-(2-(2,6-dioxopiperidin-3-yl)-1,3-dioxoisoindolin-4-yl)piperazin-1-yl)propanoyl)piperidin-4-yl)-2-fluoro-5-methoxybenzamide] |
